Measurements reported in PubChem BioAssay AID624092 (The Scripps Research Institute Molecular Screening Center, 2012).
Active and inactive are the calls of the source.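 How the source made its calls: active means compounds blocking the TEM-1 enzyme with a half-maximal inhibitory concentration of 10 micromolar or lower; inactive means the rest.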

Biological target: Beta-lactamase TEM (Escherichia coli) (UniProt P62593)
Experiment: TEM-1 beta-lactamase inhibitor potency, late-stage follow-up, selectivity assay, biochemical, absorbance, probe candidates and analogs (AID 624092)
Conditions: purified TEM-1, nitrocefin hydrolysis, epi-absorbance

Chain of Beta-lactamase TEM (Escherichia coli) (P62593 whole entry, looked up): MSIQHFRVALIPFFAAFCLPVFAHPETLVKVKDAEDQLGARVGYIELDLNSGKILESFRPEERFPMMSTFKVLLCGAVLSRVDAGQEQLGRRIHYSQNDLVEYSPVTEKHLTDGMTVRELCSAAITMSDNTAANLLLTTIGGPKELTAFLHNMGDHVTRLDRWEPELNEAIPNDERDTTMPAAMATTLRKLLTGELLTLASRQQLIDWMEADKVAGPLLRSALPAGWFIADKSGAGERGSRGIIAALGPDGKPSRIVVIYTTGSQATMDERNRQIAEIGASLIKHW

Row | SMILES | IC50
1 | CN1CCN(NC(=O)CN2C(=O)/C(=C/c3c(Cl)ccc(Cl)c3Cl)SC2=S)CC1 | > 60 µM (inactive)
2 | CN1CCN(NC(=O)CN2C(=O)/C(=C/c3c(Cl)cccc3Cl)SC2=S)CC1 | > 60 µM (inactive)
